Test results as given in article PMC8355587, “The Potential of Lisosan G as a Possible Treatment for Glaucoma” (Frontiers in Pharmacology, 2021).
Where two headings read alike, the source gives them in different places.

Experiments:
[1] = UHPLC-MS of LG components in the retina after LG gavage; assay type: in vivo, mouse; conditions: for AUC 0-24h in the retina / C max in the retina: *mg of retinal tissue (wet weight), n = 3; for retinal levels 24 h after LG administration: longest time period investigated; for Tmax: retina, 4.15 g LG/Kg of body weight
Experimental: For the analysis of different LG components reaching the retina after LG ingestion, a total of eighteen 6-mo-old D2 mice received an oral administration of LG solution by gavage. The retinas of three mice were dissected and quickly frozen in liquid nitrogen after 0 or 30 min and after 1, 2, 6, or 24 h. The retinas were stored at −80°C until used for mass spectrometry.
Assuming an average mouse body weight of 20 g, this dose corresponded to 4.15 g LG/Kg of body weight (human equivalent dose, 340 mg LG/Kg of body weight).
The main components of LG were determined in the LG powder (1 mg sample) using the same procedure as described below for the retinas. The most abundant were gallic acid, 4-hydroxybenzoic acid, quercetin, and nicotinamide (Table 2), therefore these metabolites were chosen as the LG components to be determined in the retina. To this aim, LG was administered to the mice by gavage and the retinas were dissected at different time points. The two retinas from each mouse were pooled together and they were resuspended in 0.2 ml of ice cold ultra-pure water (18 MΏ-cm) to lyse the cells. Three independent samples were analyzed for each time point. The tubes were plunged into dry ice or in a circulating bath at −25°C for 0.5 min and then into a water bath at 37°C for 0.5 min. Subsequently, 0.6 ml of −20°C methanol and then 0.4 ml of −20°C chloroform were added to each tube. The tubes were mixed every 5 min for 30 min, then they were centrifuged at 1000 × g for 1 min at 4°C, before being transferred to −20°C for 2–8 h. After centrifugation at 15,000 × g for 10 min at 4°C, the supernatants were collected and dried. Finally, the dried samples were resuspended in 0.1 ml of water and transferred to glass autosampler vials for LC-MS analysis. The supernatants were injected (20 μl) into a UHPLC system (Ultimate 3000; ThermoFisher Scientific, Waltham, MA, United States) and run in negative ion mode for determination of 4-hydroxy benzoic acid and in positive ion mode for the other. A ReproSil C18 column (2.0 mm × 150 mm, 2.5 μm; Dr Maisch, Ammerbuch-Entringen, Germany) was used for metabolite separation. […] For positive ion mode (+) MS analyses, a 0–100% linear gradient of solvent A (ddH2O, 0.1% formic acid) to B (acetonitrile, 0.1% formic acid) was employed over 20 min returning to 100% A in 3 min. For negative ion mode chromatographic separations A 0–100% linear gradient of solvent A (double-distilled 18 MΏ-cm water, […]) to B (100% acetonitrile, 10 mm ammonium acetate) was employed over 20 min, returning to 100% A in 3 min and a […] solvent A hold. The UHPLC system was coupled online with a mass spectrometer Q Exactive (ThermoFisher) scanning in full MS mode (2 μ scans) at 70,000 resolution in the 60–1000 m/z range. Data files were processed by MAVEN. 8.1 (http://genomics-pubs.princeton.edu/mzroll/) upon conversion of raw files into mzXML format through MassMatrix (Yellow Springs, OH, United States). Standard curves were obtained with several calibration points (2–0.00002 mg) of gallic acid, 4-hydroxybenzoic acid, quercetin, and nicotinamide analytical standards (Sigma Aldrich, St Louis, MO, United States).

[2] = set-up: method as in printed; conditions: general statement, no test and ref not given; cited from earlier work
[3] = D2 mice, LG by gavage 1 ml of 83 mg LG/ml (4.15 g LG/Kg)

| T max in the retina [1, 3] | AUC 0-24h in the retina [1, 3] | C max in the retina [1, 3] | Tmax ([1]; D2, mouse, po, after LG administration by gavage, read-out: time of maximum concentration in the retina) | time within which retinal levels decreased ([1]; after LG administration by gavage) | Tmax ([1]; mouse, po, D2 mice, LG by gavage 1 ml of 83 mg LG/ml (4.15 g LG/Kg), read-out: T max in the retina) | SMILES | solubility in water [2] | T max in the retina ([1]; D2, mouse, in vivo, po) | retinal levels 24 h after LG administration [1] |
| --- | --- | --- | --- | --- | --- | --- | --- | --- | --- |
| 30 min | 958.500 ± 291.500 ng·h/mg | 444.250 ± 109.713 ng/mg | – | – | – | O=C(O)c1ccc(O)cc1 [Hydroxy benzoic acid, 4-hydroxybenzoic acid] | only slightly soluble in water | – | – |
| – | – | – | – | – | – | O=C(O)c1cc(O)c(O)c(O)c1 [Gallic acid, gallic acid] | – | 30 min | still in the range of its maximum concentration |
| – | 106.900 ± 52.210 ng·h/mg | 8.040 ± 1.274 ng/mg | 360 min | – | – | NC(=O)c1cccnc1 [Nicotinamide, nicotinamide] | – | – | detectable, although low |
| – | 0.263 ± 0.049 ng·h/mg | 0.061 ± 0.016 ng/mg | – | ≤ 2 h | 30 min | O=c1c(O)c(-c2ccc(O)c(O)c2)oc2cc(O)cc(O)c12 [Quercetin, quercetin] | – | – | – |
